In test [1] the target is T1, SARS-CoV-2 PLpro (nsp3 1564–1878) (Severe acute respiratory syndrome coronavirus 2, UniProt P0DTD1). The test is described as follows: biochemical. Also on record: FRET-quenched peptide (Pro3) cleavage by PLpro, 10 min pre-incubation, slope over 20 min, normalised to no-compound control. The settings on record: low concentration screen, read-out: % of control remaining.

The target of test [2] is T1, SARS-CoV-2 PLpro (nsp3 1564–1878). The test is described as follows: biochemical. Also on record: FRET-quenched peptide (Pro3) cleavage by PLpro, 10 min pre-incubation, slope over 20 min, normalised to no-compound control. The settings on record: high concentration screen, read-out: % of control remaining.

Counter-ions that a name gives are not always drawn. Like-named read-outs stand apart in the source and are kept apart here. *1 amine or outer side, *2 acyl side, *3 side chain or, on linkers, in order; H or OH if unused. Where a SMILES comes first, the peptide text is derived from it. Bridges are numbered along the chain shown (N, C = ends). X1 = O=C(CCC[*:2])[*:1]

As for `CCN1C[C@]2(OC(=O)c3ccccc3NC(C)=O)CC[C@H](OC)[C@@]34[C@@H]2C[C@@H]([C@@H]13)[C@@]1(O)C[C@H](OC)[C@H]2C[C@@H]4[C@]1(O)[C@H]2OC` [Lappaconitine], the remaining activity at 1.25 µM in test [1] (Well no.=3653) was found to be 103%. Further, the remaining activity at 3.75 µM in test [2] (Well no.=3653) is 105%.
Take `Nc1ncnc2c1ncn2[C@@H]1O[C@H](CO)C[C@H]1O` [Cordycepin]: the remaining activity at 1.25 µM in test [1] (Well no.=7860) worked out at 101%. In addition, the remaining activity at 3.75 µM in test [2] (Well no.=7860) is 95.9%.
Turning to `COc1ccc2c(c1)/C(=C/c1cnc[nH]1)C(=O)N2` [SU9516], the remaining activity at 1.25 µM in test [1] (Well no.=2660) came out at 96.5%. Besides, the remaining activity at 3.75 µM in test [2] (Well no.=2660) amounted to 94.4%.
`CCCN(CCC)C(=O)C(CCC(=O)O)NC(=O)c1ccccc1` (stereo not drawn) [Proglumide]: in test [1] (Well no.=941), the remaining activity at 1.25 µM worked out at 104%. Besides, the remaining activity at 3.75 µM in test [2] (Well no.=941) was determined as 100%.
Turning to `C[C@]12C=CC(=O)C=C1CC[C@@H]1[C@@H]2C(=O)C[C@@]2(C)[C@H]1CC[C@]2(O)C(=O)CO` [Prednisone], the remaining activity at 1.25 µM in test [1] (Well no.=2149) came to 97.7%; in test [1] (Well no.=7429), 109%. Further, the values for the remaining activity at 3.75 µM in test [2] (Well no.=2149) and in test [2] (Well no.=7429) were 103% and 101%, respectively.
Take `CNCCc1ccccn1` [Betahistine 2HCl]: the remaining activity at 1.25 µM in test [1] (Well no.=5026) came to 97.2%. The remaining activity at 3.75 µM in test [2] (Well no.=5026) came to 98.9%.
As to `NCCc1c[nH]cn1` [Histamine (phosphate)], the remaining activity at 1.25 µM in test [1] (Well no.=6717) was 95.8%. The remaining activity at 3.75 µM in test [2] (Well no.=6717) is 91.6%.
`COc1ccc(C(=O)Nc2sc3c(c2C(N)=O)CCCC3)cc1OC` [Flt-3 Inhibitor]: in test [1] (Well no.=2407), the remaining activity at 1.25 µM amounted to 105%. In test [2] (Well no.=2407), the remaining activity at 3.75 µM was 105%.
`COC(=O)[C@H]1[C@@H](O)[C@@]2(O)c3c(OC)cc(O[C@@H]4O[C@@H]([C@H](O)CO)CO[C@H]4OC)cc3O[C@@]2(c2ccc(OC)cc2)[C@@H]1c1ccccc1` [Silvestrol]: the remaining activity at 1.25 µM in test [1] (Well no.=7120) was 103%. The remaining activity at 3.75 µM in test [2] (Well no.=7120) was 101%.
Regarding `CSc1nc(-c2ccnc(NC(C)c3ccccc3)c2)c(-c2ccc(F)cc2)[nH]1` (stereo not drawn) [p38 MAP Kinase Inhibitor III], the remaining activity at 1.25 µM in test [1] (Well no.=2596) turned out to be 94.7%. Further, in test [2] (Well no.=2596), the remaining activity at 3.75 µM is 94.5%.
As for `C#CCN[C@@H]1CCc2ccccc21` [TVP1022], the remaining activity at 1.25 µM in test [1] (Well no.=5527) is 101%. Also, the remaining activity at 3.75 µM in test [2] (Well no.=5527) was determined as 112%.
As to `CC[C@H](C)[C@@H]1NC(=O)[C@H](Cc2ccc(OC)cc2)NC(=O)CCCSC[C@@H](C(=O)N2CCC[C@H]2C(=O)N[C@@H](CC(C)C)C(=O)NCC(N)=O)NC(=O)[C@H](CC(N)=O)NC(=O)[C@H](CCC(N)=O)NC1=O` [Carbetocin] (Y(Me)IQNCPLG-NH2; linker N-5 via X1), in test [1] (Well no.=8293), the remaining activity at 1.25 µM is 102%. The remaining activity at 3.75 µM in test [2] (Well no.=8293) was found to be 101%.
As for `CCCN(CCC)CCc1cccc2c1CC(=O)N2` [Ropinirole hydrochloride], the remaining activity at 1.25 µM in test [1] (Well no.=1444) came to 93.6%. In test [2] (Well no.=1444), the remaining activity at 3.75 µM came out at 97.7%.
Turning to `Cc1ccc(NC(=O)c2cccc(C(C)(C)C#N)c2)cc1Nc1ccc2ncn(C)c(=O)c2c1` [AZ628], the remaining activity at 1.25 µM in test [1] (Well no.=5037) worked out at 88.5%. Moreover, the remaining activity at 3.75 µM in test [2] (Well no.=5037) turned out to be 94.3%.
On to `CCCCC[C@@H](/C=C/C=C\C/C=C\C/C=C\CCCC(=O)O)OO` [15(S)-HPETE], for which the remaining activity at 1.25 µM in test [1] (Well no.=4331) was determined as 99.3%. Moreover, the remaining activity at 3.75 µM in test [2] (Well no.=4331) was 98.7%.
Take `C[C@]12C[C@H](O)[C@H]3[C@@H](CCC4=CC(=O)CC[C@@]43C)[C@@H]1CC[C@@H]2C(=O)CO` [Corticosterone]: the remaining activity at 1.25 µM stood at 93.6% in test [1] (Well no.=285), 99.3% in test [1] (Well no.=1928) and 104% in test [1] (Well no.=7075). Further, the values for the remaining activity at 3.75 µM in test [2] (Well no.=285), in test [2] (Well no.=1928) and in test [2] (Well no.=7075) were 92.1%, 96.3% and 105%, respectively.
With `CN(C)CCCN1c2ccccc2Sc2ccc(Cl)cc21` [Chlorpromazine (hydrochloride)], the remaining activity at 1.25 µM in test [1] (Well no.=6227) is 95.8%. The remaining activity at 3.75 µM in test [2] (Well no.=6227) amounted to 96.3%.
Consider `Cn1c(=O)ccn([C@@H]2O[C@H](CO)[C@@H](O)[C@H]2O)c1=O` [3-Methyluridine], for which the remaining activity at 1.25 µM came out at 93.2% in test [1] (Well no.=7067) and 101% in test [1] (Well no.=7918). Besides, the remaining activity at 3.75 µM in test [2] (Well no.=7067) stood at 91.5%; in test [2] (Well no.=7918) it was 101%.
With `CN(C/C=C/c1ccccc1)Cc1cccc2ccccc12` [Naftifine HCl], the remaining activity at 1.25 µM in test [1] (Well no.=4983) stood at 96.8%. The remaining activity at 3.75 µM in test [2] (Well no.=4983) was found to be 96.2%.
For `COc1cc(OC)c(NC(=O)Nc2cc(C)on2)cc1Cl` [PNU-120596], the remaining activity at 1.25 µM in test [1] (Well no.=4964) amounted to 98.4%. Further, in test [2] (Well no.=4964), the remaining activity at 3.75 µM came to 92.3%.
As for `CNCCC(Oc1ccccc1OC)c1ccccc1` (stereo not drawn) [Nisoxetine.HCl], the remaining activity at 1.25 µM in test [1] (Well no.=1789) is 103%. In addition, the remaining activity at 3.75 µM in test [2] (Well no.=1789) amounted to 99.5%.
On to `CC[C@]1(O)C[C@@H]2CN(CCc3c([nH]c4ccccc34)[C@@](C(=O)OC)(c3cc4c(cc3OC)N(C)[C@H]3[C@@](O)(C(=O)OC)[C@H](OC(C)=O)[C@]5(CC)C=CCN6CC[C@]43[C@@H]65)C2)C1` [Vinblastine sulfate], for which, in test [1] (Well no.=3224), the remaining activity at 1.25 µM was found to be 100%. The remaining activity at 3.75 µM in test [2] (Well no.=3224) was found to be 97.9%.
Consider `CN1CCN(C2=Nc3ccccc3Oc3ccc(Cl)cc32)CC1` [Loxapine succinate], for which the remaining activity at 1.25 µM in test [1] (Well no.=1125) was determined as 93.3%. For the same compound, the remaining activity at 3.75 µM in test [2] (Well no.=1125) came to 89.7%.
Consider `O=C(O)c1ccc(SC2=NS(=O)(=O)c3ccccc32)cc1` [4-((1,1-dioxidobenzo[d]isothiazol-3-yl)thio)benzoic acid], for which the remaining activity at 1.25 µM in test [1] (Well no.=5526) was 97.8%. For the same compound, the remaining activity at 3.75 µM in test [2] (Well no.=5526) came out at 102%.
In the case of `CC(=O)Oc1ccccc1C(=O)Nc1ncc([N+](=O)[O-])s1` [Nitazoxanide], in test [1] (Well no.=5482), the remaining activity at 1.25 µM was 101%. For the same compound, the remaining activity at 3.75 µM in test [2] (Well no.=5482) was 101%.
For `CC(C)[C@H](N)C(=O)OCC(CO)OCn1cnc2c(=O)nc(N)[nH]c21` (stereo partly drawn) [Valganciclovir (hydrochloride)], in test [1] (Well no.=8044), the remaining activity at 1.25 µM is 94.6%. For the same compound, the remaining activity at 3.75 µM in test [2] (Well no.=8044) was determined as 93.4%.
As to `Cc1cccc(-c2[nH]ncc2-c2ccc3ncccc3n2)n1` [RepSox], the remaining activity at 1.25 µM in test [1] (Well no.=5490) was 96.3%. The remaining activity at 3.75 µM in test [2] (Well no.=5490) was determined as 95.5%.
On to `O=C(O)[C@H](CC(=O)N1C[C@H]2CCCC[C@H]2C1)Cc1ccccc1` [Mitiglinide calcium], for which the remaining activity at 1.25 µM in test [1] (Well no.=4888) is 95.5%. Moreover, the remaining activity at 3.75 µM in test [2] (Well no.=4888) is 96.8%.
With `CC[C@H]1OC(=O)[C@H](C)[C@@H](O[C@H]2C[C@@](C)(OC)[C@@H](O)[C@H](C)O2)[C@H](C)[C@@H](O[C@@H]2O[C@H](C)C[C@H](N(C)C)[C@H]2O)[C@](C)(O)C[C@@H](C)/C(=N\OCOCCOC)[C@H](C)[C@@H](O)[C@]1(C)O` [Roxithromycin], the remaining activity at 1.25 µM in test [1] (Well no.=2237) came to 101%. Besides, in test [2] (Well no.=2237), the remaining activity at 3.75 µM is 102%.

The values are drawn from paper PMC8286840, “Identifying SARS-CoV-2 antiviral compounds by screening for small molecule inhibitors of Nsp3 papain-like protease” (Biochemical Journal, 2021).
